Reference: patent publication US11180504B2 (ORCHID PHARMA LTD., priority 2016, dated 2021)
Converted amounts (≈) assume the structure as drawn. Like-named read-outs stand apart in the source and are kept apart here.

Legend:
[1] = system: methicillin-sensitive Staphylococcus aureus; assay: MIC by broth micro-dilution (CLSI), methicillin-sensitive S. aureus; format: cell-based; conditions: MSSA S. aureus ATCC29213
[2] = system: carbapenem sensitive Escherichia coli; assay: MIC by broth micro-dilution (CLSI), carbapenem sensitive E. coli; format: cell-based
[3] = system: extended spectrum β lactamase (ESBL) SHV18 producing Klebsiella pneumoniae; assay: MIC by broth micro-dilution (CLSI), ESBL SHV18 producing K. pneumoniae; format: cell-based; conditions: ESBL +ve (SHV-18) K. pneumoniae ATCC700603
[4] = system: carbapenemase producing K. pneumoniae; assay: MIC by broth micro-dilution (CLSI), carbapenemase producing K. pneumoniae; format: cell-based, Klebsiella pneumoniae
[5] = system: carbapenem sensitive Pseudomonas aeruginosa; assay: MIC by broth micro-dilution (CLSI), carbapenem sensitive P. aeruginosa; format: cell-based
[6] = Staphylococcus aureus, ATCC 29213 / MSSA, read-out: MIC
[7] = Escherichia coli, ATCC25922, ESBL −ve E. coli ATCC25922, read-out: MIC
[8] = Klebsiella pneumoniae, ATCC700603, 22 h, read-out: MIC
[9] = Klebsiella pneumoniae, ATCCBAA1705, KPC-2 K. pneumoniae ATCC BAA-1705, read-out: MIC
[10] = Pseudomonas aeruginosa, ATCC27853, Meropenem susceptible P. aeruginosa ATCC27853, read-out: MIC

Structure (SMILES) | MIC [1, 6] | MIC [2, 7] | MIC [3, 8] | MIC [4, 9] | MIC [5, 10] | MIC [1] | MIC ([2]; ESBL −ve E. coli ATCC25922) | MIC [3] | MIC ([4]; KPC-2 K. pneumoniae ATCC BAA-1705) | MIC ([5]; Meropenem susceptible P. aeruginosa ATCC27853)
CNCC(=O)N[C@H](C)[C@H]1C(=O)N2C(C(=O)O)=C(S[C@@H]3CN[C@H](C(=O)N4CC[C@H](NC=N)C4)C3)[C@H](C)[C@H]12 [Example 199] | 32 µg/mL (≈ 61.3 µM) | 1 µg/mL (≈ 1.92 µM) | 4 µg/mL (≈ 7.67 µM) | 2 µg/mL (≈ 3.83 µM) | 4 µg/mL (≈ 7.67 µM) |  |  |  |  | 
CNCC(=O)N[C@H](C)[C@H]1C(=O)N2C(C(=O)O)=C(S[C@@H]3CN[C@H](C(=O)N4C[C@H](N)[C@@H](N)C4)C3)[C@H](C)[C@H]12 [Example 200] | 128 µg/mL (≈ 251 µM) | 2 µg/mL (≈ 3.92 µM) | 8 µg/mL (≈ 15.7 µM) | 4 µg/mL (≈ 7.85 µM) | 4 µg/mL (≈ 7.85 µM) |  |  |  |  | 
C[C@@H](NS(C)(=O)=O)[C@H]1C(=O)N2C(C(=O)O)=C(S[C@@H]3CN[C@H](C(=O)N(CCN)CCO)C3)[C@H](C)[C@H]12 [Example 201] | 16 µg/mL (≈ 30.8 µM) | 2 µg/mL (≈ 3.85 µM) | 16 µg/mL (≈ 30.8 µM) | 64 µg/mL (≈ 123 µM) | 16 µg/mL (≈ 30.8 µM) |  |  |  |  | 
CNCC(=O)N[C@H](C)[C@H]1C(=O)N2C(C(=O)O)=C(S[C@@H]3CN[C@H](C(=O)N(CCN)CCO)C3)[C@H](C)[C@H]12 [Example 202] | 64 µg/mL (≈ 125 µM) | 4 µg/mL (≈ 7.8 µM) | 64 µg/mL (≈ 125 µM) | 16 µg/mL (≈ 31.2 µM) | 8 µg/mL (≈ 15.6 µM) |  |  |  |  | 
C[C@@H](NS(C)(=O)=O)[C@H]1C(=O)N2C(C(=O)O)=C(S[C@@H]3CN[C@H](C(=O)N4CC[C@@H](NS(N)(=O)=O)C4)C3)[C@H](C)[C@H]12 [Example 203] | 16 µg/mL (≈ 27.6 µM) | 0.5 µg/mL (≈ 0.861 µM) | 1 µg/mL (≈ 1.72 µM) | 4 µg/mL (≈ 6.89 µM) | 128 µg/mL (≈ 220 µM) |  |  |  |  | 
C[C@@H](NS(=O)(=O)C(F)(F)F)[C@H]1C(=O)N2C(C(=O)O)=C(S[C@@H]3CN[C@H](C(=O)N4CC[C@@H](N)C4)C3)[C@H](C)[C@H]12 [Example 204] | 32 µg/mL (≈ 57.6 µM) | 8 µg/mL (≈ 14.4 µM) | > 128 µg/mL | > 128 µg/mL | > 128 µg/mL |  |  |  |  | 
C[C@@H](NC(=O)[C@@H]1CCCN1)[C@H]1C(=O)N2C(C(=O)O)=C(S[C@@H]3CN[C@H](C(=O)N4CC[C@@H](N)C4)C3)[C@H](C)[C@H]12 [Example 205] | 32 µg/mL (≈ 61.5 µM) | 1 µg/mL (≈ 1.92 µM) | 2 µg/mL (≈ 3.84 µM) | 4 µg/mL (≈ 7.68 µM) | 8 µg/mL (≈ 15.4 µM) |  |  |  |  | 
C[C@@H](NC(=O)[C@H]1CCCN1)[C@H]1C(=O)N2C(C(=O)O)=C(S[C@@H]3CN[C@H](C(=O)N4CC[C@@H](N)C4)C3)[C@H](C)[C@H]12 [Example 206] | 64 µg/mL (≈ 123 µM) | 4 µg/mL (≈ 7.68 µM) | 4 µg/mL (≈ 7.68 µM) | 4 µg/mL (≈ 7.68 µM) | 4 µg/mL (≈ 7.68 µM) |  |  |  |  | 
C[C@H]([C@H]1C(=O)N2C(C(=O)O)=C(SC3CN[C@H](C(=O)N4CCNCC4)C3)[C@H](C)[C@H]12)n1cc(CF)nn1 (some centres unmarked) [Example 207] | 2 µg/mL (≈ 3.94 µM) | 2 µg/mL (≈ 3.94 µM) | 8 µg/mL (≈ 15.8 µM) | 8 µg/mL (≈ 15.8 µM) | > 128 µg/mL |  |  |  |  | 
CNCc1cn([C@H](C)[C@H]2C(=O)N3C(C(=O)O)=C(SC4CN[C@H](C(=O)N(C)C)C4)[C@H](C)[C@H]23)nn1 (some centres unmarked) [Example 208] | 64 µg/mL (≈ 134 µM) | 4 µg/mL (≈ 8.38 µM) | 8 µg/mL (≈ 16.8 µM) | 8 µg/mL (≈ 16.8 µM) | > 128 µg/mL |  |  |  |  | 
C[C@@H](NC(=O)C(F)F)[C@H]1C(=O)N2C(C(=O)O)=C(S[C@@H]3CN[C@H](C(=O)N4CC[C@@H](F)C4)C3)[C@H](C)[C@H]12 [Example 209] | 2 µg/mL (≈ 3.96 µM) | 0.5 µg/mL (≈ 0.991 µM) | 2 µg/mL (≈ 3.96 µM) | 2 µg/mL (≈ 3.96 µM) | 64 µg/mL (≈ 127 µM) |  |  |  |  | 
C[C@@H](NC(=O)C(F)F)[C@H]1C(=O)N2C(C(=O)O)=C(S[C@@H]3CN[C@H](C(=O)N4CC[C@@H](F)C4)C3)[C@H](C)[C@H]12 [Example 210] |  |  |  |  |  | 2 µg/mL (≈ 3.96 µM) | 1 µg/mL (≈ 1.98 µM) | 4 µg/mL (≈ 7.93 µM) | 4 µg/mL (≈ 7.93 µM) | 64 µg/mL (≈ 127 µM)
C[C@@H](NC(=O)C(F)F)[C@H]1C(=O)N2C(C(=O)O)=C(S[C@@H]3CN[C@H](C(=O)N4C[C@H](N)[C@@H](F)C4)C3)[C@H](C)[C@H]12 [Example 211] | 2 µg/mL (≈ 3.85 µM) | 1 µg/mL (≈ 1.92 µM) | 4 µg/mL (≈ 7.7 µM) | 4 µg/mL (≈ 7.7 µM) | 16 µg/mL (≈ 30.8 µM) |  |  |  |  | 
C[C@@H](NC(=O)C(F)F)[C@H]1C(=O)N2C(C(=O)O)=C(S[C@@H]3CN[C@H](C(=O)N4C[C@@H](N)C[C@H]4CNS(N)(=O)=O)C3)[C@H](C)[C@H]12 [Example 212] | 1 µg/mL (≈ 1.64 µM) | 0.5 µg/mL (≈ 0.82 µM) | 2 µg/mL (≈ 3.28 µM) | 4 µg/mL (≈ 6.56 µM) | 8 µg/mL (≈ 13.1 µM) |  |  |  |  | 
C[C@@H](NC(=O)C(F)F)[C@H]1C(=O)N2C(C(=O)O)=C(S[C@@H]3CN[C@H](C(=O)N4C[C@@H](O)[C@@H](N)C4)C3)[C@H](C)[C@H]12 [Example 213] | 1 µg/mL (≈ 1.93 µM) | 0.5 µg/mL (≈ 0.966 µM) | 2 µg/mL (≈ 3.86 µM) | 4 µg/mL (≈ 7.73 µM) | 8 µg/mL (≈ 15.5 µM) |  |  |  |  | 
CNCC(=O)N[C@H](C)[C@H]1C(=O)N2C(C(=O)O)=C(S[C@@H]3CN[C@H](C(=O)N4CC[C@H](F)C4)C3)[C@H](C)[C@H]12 [Example 214] | 32 µg/mL (≈ 64.3 µM) | 4 µg/mL (≈ 8.04 µM) | 32 µg/mL (≈ 64.3 µM) | 16 µg/mL (≈ 32.2 µM) | > 128 µg/mL |  |  |  |  | 
CNCC(=O)N[C@H](C)[C@H]1C(=O)N2C(C(=O)O)=C(S[C@@H]3CN[C@H](C(=O)N4CC[C@@H](F)C4)C3)[C@H](C)[C@H]12 [Example 215] | 8 µg/mL (≈ 16.1 µM) | 2 µg/mL (≈ 4.02 µM) | 32 µg/mL (≈ 64.3 µM) | 8 µg/mL (≈ 16.1 µM) | > 128 µg/mL |  |  |  |  | 
CNCC(=O)N[C@H](C)[C@H]1C(=O)N2C(C(=O)O)=C(S[C@@H]3CN[C@H](C(=O)N4C[C@@H](N)C[C@H]4CNS(N)(=O)=O)C3)[C@H](C)[C@H]12 [Example 216] | 32 µg/mL (≈ 53.1 µM) | 1 µg/mL (≈ 1.66 µM) | 16 µg/mL (≈ 26.5 µM) | 4 µg/mL (≈ 6.64 µM) | 4 µg/mL (≈ 6.64 µM) |  |  |  |  | 
CNCC(=O)N[C@H](C)[C@H]1C(=O)N2C(C(=O)O)=C(S[C@@H]3CN[C@H](C(=O)N4C[C@H](N)[C@@H](F)C4)C3)[C@H](C)[C@H]12 [Example 217] | 16 µg/mL (≈ 31.2 µM) | 0.5 µg/mL (≈ 0.975 µM) | 1 µg/mL (≈ 1.95 µM) | 1 µg/mL (≈ 1.95 µM) | 2 µg/mL (≈ 3.9 µM) |  |  |  |  | 
CNCC(=O)N[C@H](C)[C@H]1C(=O)N2C(C(=O)O)=C(S[C@@H]3CN[C@H](C(=O)N4C[C@@H](O)[C@@H](N)C4)C3)[C@H](C)[C@H]12 [Example 218] | 16 µg/mL (≈ 31.3 µM) | 1 µg/mL (≈ 1.96 µM) | 2 µg/mL (≈ 3.92 µM) | 2 µg/mL (≈ 3.92 µM) | 2 µg/mL (≈ 3.92 µM) |  |  |  |  | 
C[C@@H](NC(=O)C(F)F)[C@H]1C(=O)N2C(C(=O)O)=C(S[C@@H]3CN[C@H](C(=O)N4CC[C@@H](CN)C4)C3)[C@H](C)[C@H]12 [Example 219] | 2 µg/mL (≈ 3.88 µM) | 1 µg/mL (≈ 1.94 µM) | 4 µg/mL (≈ 7.76 µM) | 4 µg/mL (≈ 7.76 µM) | 4 µg/mL (≈ 7.76 µM) |  |  |  |  | 
CNCC(=O)N[C@H](C)[C@H]1C(=O)N2C(C(=O)O)=C(S[C@@H]3CN[C@H](C(=O)N4CC[C@@H](CN)C4)C3)[C@H](C)[C@H]12 [Example 220] | 32 µg/mL (≈ 62.9 µM) | 1 µg/mL (≈ 1.97 µM) | 2 µg/mL (≈ 3.93 µM) | 2 µg/mL (≈ 3.93 µM) | 2 µg/mL (≈ 3.93 µM) |  |  |  |  | 
CNCC(=O)N[C@H](C)[C@H]1C(=O)N2C(C(=O)O)=C(S[C@@H]3CN[C@H](C(=O)N4CCN(CCN)CC4)C3)[C@H](C)[C@H]12 [Example 221] | 32 µg/mL (≈ 59.5 µM) | 2 µg/mL (≈ 3.72 µM) | 2 µg/mL (≈ 3.72 µM) | 2 µg/mL (≈ 3.72 µM) | 4 µg/mL (≈ 7.44 µM) |  |  |  |  | 
CNCC(=O)N[C@H](C)[C@H]1C(=O)N2C(C(=O)O)=C(S[C@@H]3CN[C@H](C(=O)N4CC[N+](C)(CCN)CC4)C3)[C@H](C)[C@H]12 [Example 222] | 64 µg/mL | 2 µg/mL | 8 µg/mL | 4 µg/mL | 8 µg/mL |  |  |  |  | 
C[C@@H](NC(=O)[C@@H]1CCCN1)[C@H]1C(=O)N2C(C(=O)O)=C(S[C@@H]3CN[C@H](CNS(N)(=O)=O)C3)[C@H](C)[C@H]12 [Example 225] | 16 µg/mL (≈ 31 µM) | 1 µg/mL (≈ 1.94 µM) | 32 µg/mL (≈ 61.9 µM) | 2 µg/mL (≈ 3.87 µM) | 64 µg/mL (≈ 124 µM) |  |  |  |  | 
